Biological target: T1, human ENT1 (Homo sapiens, UniProt Q99808)
T1 construct: JAR cells expressing ENT1 were purchased from ATCC; host or cells: JAR cells
T1 sequence (Q99808 1-456): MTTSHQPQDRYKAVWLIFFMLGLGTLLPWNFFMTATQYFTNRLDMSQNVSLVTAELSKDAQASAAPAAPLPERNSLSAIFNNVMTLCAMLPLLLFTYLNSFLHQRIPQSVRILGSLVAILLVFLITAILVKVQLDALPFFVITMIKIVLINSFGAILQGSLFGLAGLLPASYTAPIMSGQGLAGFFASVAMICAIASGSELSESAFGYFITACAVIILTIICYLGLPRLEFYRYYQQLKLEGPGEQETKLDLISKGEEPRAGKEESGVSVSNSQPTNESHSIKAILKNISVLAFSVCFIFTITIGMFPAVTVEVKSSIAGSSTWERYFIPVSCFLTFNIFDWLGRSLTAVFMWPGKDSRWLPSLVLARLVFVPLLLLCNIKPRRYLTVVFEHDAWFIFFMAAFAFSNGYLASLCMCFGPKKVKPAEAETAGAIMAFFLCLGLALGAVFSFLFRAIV
Experiment: ENT1 binding assay (competition with Sahenta-DY647 on JAR cells)
Conditions: competition with SAHENTA-DY647 binding; IC50 categorized; read-out: Binding Assay IC50
In short: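 Fluorescent-tracer displacement: compound incubated with JAR cells 30 min, 4 °C, before Sahenta-DY647 (100 nM) for another 30 min, 4 °C, in Hepes-buffered HBSS with 0.1% BSA. Bound tracer read at 670 nm after washes; IC50 from four-parameter fit, reported as mean of pIC50 values.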

Row | Structure (SMILES) | IC50 [µM]
1 | C[C@H]1O[C@@H](n2cnc3c(-c4nc(-c5ccc([N+](=O)[O-])cc5)no4)ncnc32)[C@H](O)[C@@H]1O [Compound 420] | > 0.5
2 | C[C@H]1O[C@@H](n2c(NCC3CCOCC3)nc3c(OCc4ccc(C#N)cc4)ncnc32)[C@H](O)[C@@H]1O [Compound 109] | 0.001 to 0.02
3 | C[C@H]1O[C@@H](n2cnc3c(OCc4ccc(-c5cnco5)cc4)ncnc32)[C@H](O)[C@@H]1O [Compound 291] | > 0.5
4 | C[C@H]1O[C@@H](n2cnc3c(NCc4ccc(-c5ccccn5)cc4)ncnc32)[C@H](O)[C@@H]1O [Compound 384] | > 0.5
5 | C[C@H]1O[C@@H](n2cnc3c(OCc4ccccc4-n4cccn4)ncnc32)[C@H](O)[C@@H]1O [Compound 358] | > 0.5
6 | C[C@H]1C[C@@H](n2cnc3c(SCc4ccc([N+](=O)[O-])cc4)ncnc32)[C@H](O)[C@@H]1O [Compound 214] | 0.02 to 0.5
7 | C[C@H]1O[C@@H](n2cnc3c(SCc4cncc(C#N)c4)ncnc32)[C@H](O)[C@@H]1O [Compound 251] | > 0.5
8 | O=[N+]([O-])c1ccc(COc2ncnc3c2ncn3[C@@H]2O[C@H](COCCO)[C@@H](O)[C@H]2O)cc1 [Compound 191] | 0.02 to 0.5
9 | C[C@H]1O[C@@H](n2cnc3c(OCc4c(F)cc(F)cc4F)ncnc32)[C@H](O)[C@@H]1O [Compound 260] | > 0.5
10 | C[C@H]1O[C@@H](n2c(NC3CCCC3)nc3c(OCc4ccc(C(F)F)cc4)ncnc32)[C@H](O)[C@@H]1O [Compound 94] | 0.001 to 0.02
11 | C[C@H]1O[C@@H](n2cnc3c(COCc4ccccc4)ncnc32)[C@H](O)[C@@H]1O [Compound 399] | > 0.5
12 | Cc1cc(COc2ncnc3c2nc(NC2CCCC2)n3[C@@H]2O[C@H](C)[C@@H](O)[C@H]2O)ccn1 [Compound 15] | 0.02 to 0.5
13 | C[C@H]1O[C@@H](n2cnc3c(NS(=O)(=O)Cc4ccc([N+](=O)[O-])cc4)ncnc32)[C@H](O)[C@@H]1O [Compound 407] | > 0.5
14 | C[C@H]1O[C@@H](n2cnc3c(-c4cn(-c5ccc([N+](=O)[O-])cc5)nn4)ncnc32)[C@H](O)[C@@H]1O [Compound 368] | > 0.5
15 | C[C@H]1O[C@@H](n2c(NC3CCC(O)CC3)nc3c(OCc4ccc(C#N)cc4)ncnc32)[C@H](O)[C@@H]1O (some centres unmarked) [Compound 52] | < 0.001
16 | CNc1ccccc1COc1ncnc2c1ncn2[C@@H]1O[C@H](C)[C@@H](O)[C@H]1O [Compound 372] | > 0.5
17 | C[C@H]1O[C@@H](n2c(N[C@H]3CC[C@](C)(O)CC3)nc3c(N4CCc5ccc([N+](=O)[O-])cc5C4)ncnc32)[C@H](O)[C@@H]1O [Compound 144] | 0.001 to 0.02
18 | C[C@H]1O[C@@H](n2cnc3c(OCc4ccc(C5CC5)cc4)ncnc32)[C@H](O)[C@@H]1O [Compound 206] | 0.02 to 0.5
19 | C[C@H]1O[C@@H](n2cnc3c(OCCc4ccc(OC(F)(F)F)nc4)ncnc32)[C@H](O)[C@@H]1O [Compound 349] | > 0.5
20 | C[C@H]1O[C@@H](n2cnc3c(NCc4ccc(Cl)c(Cl)c4)ncnc32)[C@H](O)[C@@H]1O [Compound 254] | > 0.5
21 | C[C@H]1O[C@@H](n2c(-c3cn[nH]c3)nc3c(OCc4ccc([N+](=O)[O-])cc4)ncnc32)[C@H](O)[C@@H]1O [Compound 208] | 0.02 to 0.5
22 | C[C@H]1O[C@@H](n2c(Nc3cnn(C)c3)nc3c(N4CCc5ccc([N+](=O)[O-])cc5C4)ncnc32)[C@H](O)[C@@H]1O [Compound 142] | < 0.001
23 | C[C@H]1O[C@@H](n2cnc3c(OCc4ccc(N5CCCC5)cc4)ncnc32)[C@H](O)[C@@H]1O [Compound 377] | > 0.5
24 | C[C@H]1O[C@@H](n2c(NCCO)nc3c(OCc4ccc(OC(F)F)cc4)ncnc32)[C@H](O)[C@@H]1O [Compound 42] | 0.001 to 0.02
25 | CC(CCO)Nc1nc2c(OCc3ccc(C(F)(F)F)cc3)ncnc2n1[C@@H]1O[C@H](C)[C@@H](O)[C@H]1O (some centres unmarked) [Compound 96] | 0.001 to 0.02
26 | Cc1ccc(CNc2ncnc3c2ncn3[C@@H]2O[C@H](C)[C@@H](O)[C@H]2O)cc1C [Compound 320] | > 0.5

Source: patent US20260184712A1, “Heterocyclic Compounds as ENT Inhibitors and Compounds for Use in the Treatment of Cancers” (iTeos Belgium SA, priority 2022, published 2026)
